Data on four compounds can be found in PubChem BioAssay AID435002 (The Scripps Research Institute Molecular Screening Center, 2010).

As a reminder, the IC50 is the midpoint of a concentration-inhibition curve.

This test relates to HEK293 cells, ROS production inhibition counter-screen. The experiment in a line: HEK293 ROS counter-screen potency – cell-based, IC50, set 2, counter-screen for NOX1 inhibitor project, late-stage follow-up (AID 435002).
`FC(F)(F)c1ccc2c(c1)Nc1ccccc1S2`: the IC50 is 1000 nM.

For the compound `Cc1cc(Cl)ccc1NC(=S)NNC(=S)Nc1ccc(F)cc1`, the IC50 was 960 nM.

Regarding `CN(C)c1ccc(NC(=O)Nc2ccc(OCc3ccccc3)cc2)cc1`, the IC50 is 2370 nM.

With `COc1cc(-c2nc(-c3ccccc3)c(-c3ccccc3)[nH]2)ccc1O`, the IC50 is 1810 nM.
